Ends that are not written are not given here.
System: trypsin
Assay: Colloidal gold nanoparticle-based colorimetric assay for trypsin (hydrolytic cleavage of peptide substrate)
Type: biochemical
Details: 1000 nM peptide substrate, trypsin 200 pM, 20° C.
Description: Based on the design criteria for the peptide substrate mentioned above, a sequence of amino acids in the peptide substrate of SEQ ID NO: 1 Lys-Lys-Gly-Phe-Pro-Arg-Gly-Gly-Asp-Cys was used in an assay method patterned after FIG. 1a. Unless noted otherwise, all incubations and reactions reported in the present specification were conducted at 20° C. The final reaction volume in all experiments described in the present specification, unless noted otherwise, was 500 microliters and the gold nanoparticle concentration was 1 nM. […] Thus, in all of the described experiments the aggregation state of any gold nanoparticle solution could be measured after 30 minutes or less. […] All of these can be evaluated using the present inventive assay methods. […]
After confirming that the peptide substrate SEQ ID NO: 1 Lys-Lys-Gly-Phe-Pro-Arg-Gly-Gly-Asp-Cys did induce the aggregation of negative surface charged gold nanoparticles, we carried out another experiment of examining the ultraviolet-visible spectra of solutions of colloidal gold nanoparticles after they were added to solutions of peptide substrates that had been pre-exposed for different time periods of from 0 minutes (min) to 60 min to trypsin. […] The absorbance spectrum shifts back to a maximum at 520 nm±5 nm, non-aggregated nanoparticles, as the pre-exposure time increases. […]

In the case of “KKGFPRGGDC [SEQ ID NO: 1, peptide substrate cleaved by trypsin; intact peptide aggregates negatively charged gold nanoparticles]”, the “time for complete hydrolytic cleavage of the peptide substrate by trypsin” value is reported as “more than 60 min”.
